Measurements published in ChEMBL document CHEMBL1149491, “Novel tricyclic azepine derivatives: Biological evaluation of pyrimido[4,5-b]-1,4-benzoxazepines, thiazepines, and diazepines as inhibitors of the epidermal growth factor receptor tyrosine kinase” (Bioorg Med Chem Lett, 2006).

Assays:
[1] = target: T1, Epidermal growth factor receptor (Homo sapiens, UniProt P00533); test: Inhibition of EGFR measured as pGAT-biotin peptide phosphorylation in presence of 2.0 uM ATP by HTRF assay; assay type: functional
T1 sequence (P00533 whole entry): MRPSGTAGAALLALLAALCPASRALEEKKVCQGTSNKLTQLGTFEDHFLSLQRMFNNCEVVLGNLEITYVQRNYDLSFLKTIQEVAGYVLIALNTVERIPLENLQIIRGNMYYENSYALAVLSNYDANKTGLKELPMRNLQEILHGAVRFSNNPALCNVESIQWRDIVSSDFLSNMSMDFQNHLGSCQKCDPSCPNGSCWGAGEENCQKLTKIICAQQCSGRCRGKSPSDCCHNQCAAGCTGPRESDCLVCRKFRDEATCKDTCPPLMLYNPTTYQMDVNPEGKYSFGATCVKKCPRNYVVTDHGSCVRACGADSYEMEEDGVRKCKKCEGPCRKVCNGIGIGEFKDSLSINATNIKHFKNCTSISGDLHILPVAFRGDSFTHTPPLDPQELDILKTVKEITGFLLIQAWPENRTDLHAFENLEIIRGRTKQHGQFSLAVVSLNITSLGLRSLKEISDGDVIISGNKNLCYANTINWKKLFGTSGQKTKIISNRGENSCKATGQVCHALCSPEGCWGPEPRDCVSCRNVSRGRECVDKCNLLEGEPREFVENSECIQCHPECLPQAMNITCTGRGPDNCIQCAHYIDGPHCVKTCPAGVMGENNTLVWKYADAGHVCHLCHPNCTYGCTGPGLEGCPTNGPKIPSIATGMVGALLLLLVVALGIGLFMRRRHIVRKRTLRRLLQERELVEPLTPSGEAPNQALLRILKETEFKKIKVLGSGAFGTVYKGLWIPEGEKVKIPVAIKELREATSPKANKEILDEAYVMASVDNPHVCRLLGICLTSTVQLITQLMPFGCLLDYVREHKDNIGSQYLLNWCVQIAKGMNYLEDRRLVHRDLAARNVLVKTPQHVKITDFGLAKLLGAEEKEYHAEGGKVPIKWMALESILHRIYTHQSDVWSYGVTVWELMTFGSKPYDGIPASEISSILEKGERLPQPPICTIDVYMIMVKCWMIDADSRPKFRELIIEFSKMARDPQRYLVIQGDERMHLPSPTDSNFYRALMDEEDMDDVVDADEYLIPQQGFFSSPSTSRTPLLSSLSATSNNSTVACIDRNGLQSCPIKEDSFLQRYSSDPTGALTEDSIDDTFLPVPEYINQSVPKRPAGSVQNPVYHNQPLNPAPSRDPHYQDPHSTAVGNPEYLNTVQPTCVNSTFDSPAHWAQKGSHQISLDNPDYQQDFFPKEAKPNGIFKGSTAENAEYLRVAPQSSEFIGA

[2] = target: Vascular endothelial growth factor receptor 2 (Homo sapiens, UniProt P35968)
Vascular endothelial growth factor receptor 2, sequence (P35968 whole entry): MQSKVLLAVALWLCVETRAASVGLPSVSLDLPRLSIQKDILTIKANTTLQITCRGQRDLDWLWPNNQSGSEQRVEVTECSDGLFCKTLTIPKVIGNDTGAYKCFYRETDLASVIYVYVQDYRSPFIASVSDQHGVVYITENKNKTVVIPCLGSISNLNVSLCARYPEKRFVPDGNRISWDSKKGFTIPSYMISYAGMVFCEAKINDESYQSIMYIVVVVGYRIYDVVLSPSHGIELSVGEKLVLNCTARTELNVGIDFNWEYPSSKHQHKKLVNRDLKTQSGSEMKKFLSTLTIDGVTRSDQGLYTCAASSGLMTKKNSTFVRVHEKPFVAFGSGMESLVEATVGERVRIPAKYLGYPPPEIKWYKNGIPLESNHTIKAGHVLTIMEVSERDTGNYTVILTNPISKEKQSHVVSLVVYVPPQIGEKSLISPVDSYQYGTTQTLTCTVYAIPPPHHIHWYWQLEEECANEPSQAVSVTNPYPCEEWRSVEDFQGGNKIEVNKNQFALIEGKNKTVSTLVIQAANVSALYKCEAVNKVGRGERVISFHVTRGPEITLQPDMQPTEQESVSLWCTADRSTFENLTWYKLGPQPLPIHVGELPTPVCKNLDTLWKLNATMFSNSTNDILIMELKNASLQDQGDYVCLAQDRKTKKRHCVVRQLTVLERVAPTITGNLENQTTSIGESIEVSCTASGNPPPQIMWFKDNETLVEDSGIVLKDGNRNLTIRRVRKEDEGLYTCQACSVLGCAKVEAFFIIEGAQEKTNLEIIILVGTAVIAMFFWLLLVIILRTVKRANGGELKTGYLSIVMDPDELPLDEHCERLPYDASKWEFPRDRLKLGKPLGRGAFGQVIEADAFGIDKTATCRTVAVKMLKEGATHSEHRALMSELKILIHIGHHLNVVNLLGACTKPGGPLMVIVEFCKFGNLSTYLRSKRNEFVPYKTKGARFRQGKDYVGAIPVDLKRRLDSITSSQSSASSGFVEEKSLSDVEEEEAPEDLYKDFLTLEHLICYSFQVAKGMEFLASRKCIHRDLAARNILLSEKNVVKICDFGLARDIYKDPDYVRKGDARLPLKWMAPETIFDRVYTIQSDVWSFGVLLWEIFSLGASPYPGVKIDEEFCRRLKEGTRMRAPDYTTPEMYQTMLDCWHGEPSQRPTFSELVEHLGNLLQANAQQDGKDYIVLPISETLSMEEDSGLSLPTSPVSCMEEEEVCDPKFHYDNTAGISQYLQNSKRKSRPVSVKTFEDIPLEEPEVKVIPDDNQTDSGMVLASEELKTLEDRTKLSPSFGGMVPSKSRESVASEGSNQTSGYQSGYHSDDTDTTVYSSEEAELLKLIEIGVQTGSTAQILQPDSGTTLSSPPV
Description: Inhibition of KDR measured as pGAT-biotin peptide phosphorylation by HTRF assay

[3] = target: T1, Epidermal growth factor receptor; test: Inhibition of EGFR autophosphorylation in DiFi cells by ELISA; assay type: functional, cell-based

Row | SMILES | IC50 [1] | IC50 [2] | IC50 [3]
1 | COc1cc2c(cc1OC)Oc1ncnc(Nc3ccc4ncsc4c3)c1NC2 | 5.6 µM | > 10 µM | 
2 | COc1cc2c(cc1OC)Sc1ncnc(Nc3cccc(Br)c3)c1NC2 | 5.9 µM |  | 
3 | COc1cc2c(cc1OC)Sc1ncnc(Sc3cccc(Br)c3)c1NC2 | 1.6 µM |  | 
4 | COc1cc2c(cc1OC)Sc1nc(C)nc(Nc3cccc(Br)c3)c1NC2 | 30.7 µM |  | 
5 | COc1cc2c(cc1OC)Oc1ncnc(Oc3cccc(Br)c3)c1NC2 | 0.7 µM | > 10 µM | 1.8 µM
6 | COc1cc2c(cc1OC)Sc1nc(C)nc(Nc3ccc4ccccc4c3)c1NC2 | 17 µM |  | 
7 | COc1cc2c(cc1OC)Oc1ncnc(Oc3cccc(Br)c3)c1N(C)C2 | 1.2 µM |  | 6.1 µM
8 | COc1cc2c(cc1OC)Oc1nc(C)nc(Nc3cccc(Cl)c3F)c1NC2 | > 100 µM | > 10 µM | 
9 | COc1cc2c(cc1OC)Sc1nc(C)nc(Nc3ccc(C)c(Br)c3)c1NC2 | > 100 µM |  | 
10 | COc1cc2c(cc1OC)Sc1ncnc(Oc3cccc(Br)c3)c1NC2 | 21.7 µM |  | 
11 | COc1cc2c(cc1OC)Sc1nc(C)nc(Nc3ccc4c(c3)CN=N4)c1NC2 | 16.2 µM |  | 
12 | COc1cc2c(cc1OC)Sc1ncnc(N(C)c3cccc(Cl)c3)c1NC2 | 27 µM |  | 
13 | COc1cc2c(cc1OC)Sc1ncnc(N(C)c3cccc(Br)c3)c1NC2 | > 100 µM |  | 
14 | COc1cc2c(cc1OC)Sc1nc(C)nc(Nc3ccc4c[nH]nc4c3)c1NC2 | 24.6 µM |  | 
15 | COc1cc2c(cc1OC)Oc1ncnc(Oc3ccc(F)c(Cl)c3)c1N(C)C2 | 10.8 µM | > 10 µM | 
16 | C#Cc1cccc(Nc2ncnc3c2NCc2cc(OC)c(OC)cc2O3)c1 | 3.2 µM |  | 0.9 µM
17 | COc1cc2c(cc1OC)Oc1ncnc(Nc3ccc(Br)cc3)c1NC2 | 8.7 µM | > 10 µM | > 100 µM
18 | COc1cc2c(cc1OC)Sc1ncnc(Nc3ccc4ncsc4c3)c1NC2 | > 100 µM |  | 
19 | COc1cc2c(cc1OC)Sc1nc(C)nc(Nc3ccc4[nH]cnc4c3)c1NC2 | 14.5 µM |  | 
20 | COc1cc2c(cc1OC)Sc1nc(C)nc(Nc3cccc(Cl)c3F)c1NC2 | > 100 µM |  | 
21 | COc1cc2c(cc1OC)Oc1ncnc(Sc3cccc(Br)c3)c1NC2 | 1.3 µM | > 10 µM | 1.2 µM
22 | COc1cc2c(cc1OC)Sc1nc(C)nc(Nc3ccc(Cl)c(C)c3)c1NC2 | > 100 µM |  | 
23 | COc1cc2c(cc1OC)Sc1nc(C)nc(Nc3ccc4ncsc4c3)c1NC2 | 15.2 µM |  | 
24 | COc1cc2c(cc1OC)Oc1ncnc(Nc3ccc4ccccc4c3)c1NC2 | 0.5 µM | > 10 µM | 2.3 µM

Now from value to compound:

Row | IC50 [1] | IC50 [2] | IC50 [3] | SMILES
25 | 1.2 µM | > 10 µM |  | COc1cc2c(cc1OC)Oc1ncnc(Nc3ccc4c[nH]nc4c3)c1NC2
26 | 1.5 µM |  |  | COc1cc2c(cc1OC)Nc1ncnc(Nc3cccc(Br)c3)c1NC2
27 | 45.9 µM |  |  | COc1cc2c(cc1OC)Sc1nc(C)nc(Nc3ccc(F)c(Cl)c3)c1NC2
28 |  |  | 0.7 µM | COc1cc2c(cc1OC)Oc1ncnc(Nc3ccc(F)c(Cl)c3)c1NC2
29 | 7.4 µM | > 10 µM | 4.4 µM | COc1cc2c(cc1OC)Oc1ncnc(Nc3cccc(C)c3)c1NC2
30 | 62.9 µM |  |  | COc1cc2c(cc1OC)Sc1ncnc(Nc3cccc(Cl)c3F)c1NC2
31 | 0.3 µM | > 10 µM | 0.5 µM | COc1cc2c(cc1OC)Oc1ncnc(Nc3cccc(Br)c3)c1NC2
32 | 19.3 µM |  |  | COc1cc2c(cc1OC)Sc1ncnc(Oc3cccc(Cl)c3F)c1NC2
33 | 7.1 µM | > 10 µM | 7.6 µM | COc1cc2c(cc1OC)Oc1ncnc(Nc3ccc(F)cc3)c1NC2
34 | 2.9 µM |  |  | COc1cc2c(cc1OC)Sc1ncnc(Sc3cccc(Cl)c3)c1NC2
35 | 0.8 µM | 2 µM | 11.7 µM | COc1cccc(CNc2ncnc3c2NCc2cc(OC)c(OC)cc2N3)c1
36 | 0.3 µM |  | 4.6 µM | COc1cc2c(cc1OC)Oc1ncnc(Nc3cccc(Cl)c3F)c1NC2
37 | 8.2 µM |  |  | COc1cc2c(cc1OC)Sc1ncnc(Nc3ccc(F)c(Cl)c3)c1NC2
38 | 1.1 µM |  | 3.9 µM | COc1cc2c(cc1OC)Oc1ncnc(Nc3cc(Cl)ccc3F)c1NC2
39 | 1 µM | > 10 µM | 2.4 µM | COc1cc2c(cc1OC)Oc1ncnc(Sc3cccc(Cl)c3)c1NC2
40 | 4.6 µM |  |  | COc1cc2c(cc1OC)Oc1ncnc(Oc3cccc(Cl)c3F)c1NC2
41 | 14.1 µM |  |  | COc1cc2c(cc1OC)Sc1ncnc(Nc3ccc4c[nH]nc4c3)c1NC2
42 | 0.15 µM | 2 µM | 0.5 µM | COc1cc2c(cc1OC)Nc1ncnc(N[C@H](C)c3ccccc3)c1NC2
43 | 0.3 µM | 2 µM | 1.6 µM | COc1cc2c(cc1OC)Nc1ncnc(NCc3ccc(F)c(Cl)c3)c1NC2
44 | 0.2 µM | 2 µM | 0.9 µM | COc1cc2c(cc1OC)Nc1ncnc(NCc3ccccc3)c1NC2
